From US8334293B2, “P70 S6 kinase inhibitor and EGFR inhibitor combination therapy” (Eli Lilly and Company, priority 2008, dated 2012)
Where a name gives a salt, the structure may show the parent alone.

Tested on: A549 human non-small-cell lung carcinoma cells
Assay: In vivo efficacy, A549 xenograft tumor volume
Parameters: species or system mice
Settings: for pairwise comparison of log tumor volume AUC with the combination group / statistical difference (p) of log tumor volume AUC from the vehicle: 2-way ANOVA; for Tumor volume Mean: oral once daily, 2.5 mg/kg p70 S6 kinase inhibitor and/or 20 mg/kg erlotinib hydrochloride, in mm^3 (unit assumed); for Signif. (difference relative to vehicle group): tumor volume, repeated measures ANOVA; for log tumor volume AUC: tumor volume vs. time, trapezoid rule, vehicle 3.91
Description: A549 human non-small-cell lung carcinoma cells (5×10^6) are subcutaneously implanted into the flank of female C.B-17 (Fox Chase SCID) Model #CB17SC-M mice in 0.2 mL of matrigel. Approximately 1 week post-implantation when the tumor size is approximately 100 mg, mice are randomized into groups of 10 and dosed orally once daily at 2.5 mg/kg 4-[4-[4-(4-fluoro-3-trifluoromethyl-phenyl)-1-methyl-1H-imidazol-2-yl]-piperidin-1-yl]-1H-pyrazolo[3,4-d]pyrimidine (the p70 S6 kinase inhibitor; formulated in 35% PEG300/10% HPBCD/10% PS80 in H2O; concentration of inhibitor is 0.31 mg/mL) or 20 mg/kg erlotinib hydrochloride (formulated in NaCMC Tween 80; concentration of erlotinib hydrochloride is 2.5 mg/mL) or in combination (2.5 mg/kg of the p70 S6 kinase inhibitor and 20 mg/kg of erlotinib hydrochloride). The vehicle group is given the 2 vehicles (NaCMC Tween 80 and 35% PEG300/10% HPBCD/10% PS80 in H2O) in combination (0.1 mL of each). Treatment is continued for 38 days. Tumor volumes are measured using standard technique twice weekly and reported. Tumor size and body weight are recorded and analyzed bi-weekly. Tumor volume is estimated by using the formula: v=l×w^2×0.536 where l=larger of measured diameter and w=smaller of perpendicular diameter. The analysis uses SAS software version 8.2 (SAS Institutes Inc, Cary, N.C.) to analyze the log tumor volume data using a repeated measures ANOVA model with a spatial power covariance structure. For each time point taken, treatment groups are compared to the vehicle control group. Tumor volumes are given as means±standard errors for each treatment group determined from a repeated measures ANOVA on each group. (SAS for Mixed Models, 2nd Ed., Littell et al., 2006, SAS Institutes Inc, Cary, N.C.).
The tumor volume vs. time data for each animal is used to calculate an area under the curve (AUC) using the trapezoid rule. These AUCs are analyzed by 2-way ANOVA using a log transformation to equalize variance across groups. The two factors are the dose of 4-[4-[4-(4-fluoro-3-trifluoromethyl-phenyl)-1-methyl-1H-imidazol-2-yl]-piperidin-1-yl]-1H-pyrazolo[3,4-d]pyrimidine and the dose of erlotinib hydrochloride. The interaction effect between the factors is used to test for departure from additivity. (An Introduction to Statistical Methods and Data Analysis, R. Lyman Ott, 1993, Duxbury Press, Belmont, Calif.)
The results of this study are shown in the table below. n (the number of mice) is 9 for all the data, except for the data from day 17 onwards in the vehicle group and the data from day 38 onwards in the erlotinib hydrochloride group when it is 8. The data in the column headed Signif. indicates whether the difference relative to the vehicle group is statistically significant: NS=Not Significant (p>0.05); *=0.01<p≦0.05; **=0.001<p≦0.01; ***=p≦0.001.

| Structure (SMILES) | pairwise comparison of log tumor volume AUC with the combination group | statistical difference (p) of log tumor volume AUC from the vehicle | Tumor volume Mean (Day 7) | Signif. (difference relative to vehicle group) (Day 7) | Tumor volume Mean (Day 9) | Signif. (difference relative to vehicle group) (Day 9) | Tumor volume Mean (Day 14) | Signif. (difference relative to vehicle group) (Day 14) | Tumor volume Mean (Day 17) | Signif. (difference relative to vehicle group) (Day 17) | Tumor volume Mean (Day 21) | Signif. (difference relative to vehicle group) (Day 21) | Tumor volume Mean (Day 24) | Signif. (difference relative to vehicle group) (Day 24) | Tumor volume Mean (Day 28) | Signif. (difference relative to vehicle group) (Day 28) | Tumor volume Mean (Day 31) | Signif. (difference relative to vehicle group) (Day 31) | Tumor volume Mean (Day 35) | Signif. (difference relative to vehicle group) (Day 35) | other results |
| --- | --- | --- | --- | --- | --- | --- | --- | --- | --- | --- | --- | --- | --- | --- | --- | --- | --- | --- | --- | --- | --- |
| C#Cc1cccc(Nc2ncnc3cc(OCCOC)c(OCCOC)cc23)c1 [Erlotinib Hydrochloride, N-(3-ethynylphenyl)-6,7-bis-(2-methoxyethoxy)-4-quinazolinamine] | significantly different from the combination group | not significantly different from the vehicle | 39.5 | NS (NS=Not Significant (p>0.05)) | 51.5 | NS (NS=Not Significant (p>0.05)) | 61.8 | NS (NS=Not Significant (p>0.05)) | 74.8 | NS (NS=Not Significant (p>0.05)) | 91.1 | NS (NS=Not Significant (p>0.05)) | 101.6 | NS (NS=Not Significant (p>0.05)) | 139.9 | NS (NS=Not Significant (p>0.05)) | 141.8 | ** (**=0.001<p≦0.01) | 196.7 | ** (**=0.001<p≦0.01) | Tumor volume Mean (Day 38): 259.4; Signif. (difference relative to vehicle group) (Day 38): * (*=0.01<p≦0.05); Tumor volume Mean (Day 42): 260.1; Signif. (difference relative to vehicle group) (Day 42): ** (**=0.001<p≦0.01); Tumor volume Mean (Day 44): 373.8; Signif. (difference relative to vehicle group) (Day 44): * (*=0.01<p≦0.05); log tumor volume AUC: 3.76 |
| Cn1cc(-c2ccc(F)c(C(F)(F)F)c2)nc1C1CCN(c2ncnc3[nH]ncc23)CC1 [p70 S6 Kinase Inhibitor, 4-[4-[4-(4-fluoro-3-trifluoromethyl-phenyl)-1-methyl-1H-imidazol-2-yl]-piperidin-1-yl]-1H-pyrazolo[3,4-d]pyrimidine] | significantly different from the combination group | not significantly different from the vehicle | 33.8 | NS (NS=Not Significant (p>0.05)) | 51.9 | NS (NS=Not Significant (p>0.05)) | 56.2 | NS (NS=Not Significant (p>0.05)) | 75.9 | NS (NS=Not Significant (p>0.05)) | 94.1 | NS (NS=Not Significant (p>0.05)) | 113.5 | NS (NS=Not Significant (p>0.05)) | 196.6 | NS (NS=Not Significant (p>0.05)) | 231.3 | NS (NS=Not Significant (p>0.05)) | 302.4 | NS (NS=Not Significant (p>0.05)) | Tumor volume Mean (Day 38): 353.3; Signif. (difference relative to vehicle group) (Day 38): NS (NS=Not Significant (p>0.05)); Tumor volume Mean (Day 42): 425.5; Signif. (difference relative to vehicle group) (Day 42): NS (NS=Not Significant (p>0.05)); Tumor volume Mean (Day 44): 530.9; Signif. (difference relative to vehicle group) (Day 44): NS (NS=Not Significant (p>0.05)); log tumor volume AUC: 3.85 |
